Converted amounts (≈) assume the structure as drawn.
What was measured:
[1] = system: KB 8-5-11 cells; assay: Relative RMA activity: percent KB 8-5-11 (MDR) cells showing rhodamine 123 fluorescence in the range of sensitive KB 3-1 cells; type: cell-based, human; details: Table V, none = 0.6
Description: Efflux of rhodamine 123 from MDR cells was also examined to provide direct information about the action of the transport protein Mdr 1. Enhanced accumulation of the P-gp substrate, rhodamine 123, in multidrug resistant KB 8-5-11 cells was used to measure RMA activity. Flow cytometric analysis was performed as described (Coon et al., 1991; Buckingham et al. 1995). Briefly, multidrug resistant KB 8-5-11 cells (0.5×10^6 cells/ml) were incubated with […] rhodamine 123 at 37° C. in the presence or absence of the putative RMA. After 60 min., mean intracellular steady state rhodamine 123 fluorescence was measured on an Epics Profile How Cytometer (Coulter, Hialeah, Fla.).
SOLUTOL® HS 15 was fractionated using reverse phase liquid chromatography to determine where the activity resides in the preparation. An approximately 50% solution of SOLUTOL® HS 15 was prepared in 100% acetonitrile (ACN) and water. One ml of the SOLUTOL® HS 15 solution was injected onto a Phenomenex IB-Sil reversed phase column. The column has 5 μm particles, and is 4.6 mm internal diameter by 150 mm. The flow rate was 2.0 ml/min. The mobile phase was as follows: A=5% ACN and B=100% ACN. The gradient was linear with 100% A to 100% B in 15 minutes, then was maintained at 100% B. Fractions were collected at 30 second intervals. The various fractions were assayed for RMA activity as described in Example III. […] 145-149, 1989.
The various fractions obtained from the reverse phase liquid chromatography were analyzed to determine the RMA activity in each fraction. The fractions were then analyzed by infrared spectrophotometry.
^a Percent cells KB85-11 (MDR) showing rhodamine 123 fluorescence in
the range of sensitive cell (KB31) in the same experiment.
CREMOPHOR® EL was fractionated by super critical extraction. Approximately 25 grams of CREMOPHOR® EL was thoroughly mixed with 20 grams of hydromatrix (silicon dioxide) manufactured by Varian--Harbor City, Calif. 40710 and loaded into a stainless steel high pressure extraction cell. The extraction cell was maintained at 40° C. Supercritical carbon dioxide was pumped into the extraction cell at a rate of approximately 3 liters of gaseous carbon dioxide per minute (4 ml of supercritical carbon dioxide per minute). The extractable material was dissolved under the extraction conditions, and separated from the matrix. The supercritical carbon dioxide solution with dissolved component was then depressurized to evaporate the carbon dioxide gas, and to precipitate the solute. […]
^a Percent KB 85-11 (MDR) cells showing rhodamine 123 fluorescence in
The RMA activity of various fatty acids, PEG monoesters and PEG diesters was determined by the method described in Example III. […]

[2] = system: KB 8-5-11 cells; assay: cells; type: cell-based; details: Homo sapiens, 1 h, Table V, read-out: MFI (T/U), treated cells/untreated cells; for fold induction at 100 µg/mL: KB8-5-11, 100 μg/ml
From the text: A series of PEG domains of average MW 600, 900 or 1500 was synthesized.

[3] = system: KB 3-1 cells; assay: cells; type: cell-based; details: Homo sapiens, KB 3-1, 1 h, Table V, read-out: MFI (T/U), treated cells/untreated cells; for fold induction at 100 µg/mL: KB3-1, 100 μg/ml
From the text: ^b Mean Fluorescence Intensity resulting from intracellular rhodamine

[4] = in vitro; details: human, k562/iii cells
Description: The chromogenic substrate, MTT (Sigma), was used to enumerate viable cells. […] For the Resistance Modification Index (RMI, Eliason et al., 1990), cells were prepared in microtiter plates and incubated with the indicated drugs and RMA. RMI was calculated as the IC50 of drug alone/IC50 of drug+RMA. The average RMI was calculated from at least three independent assays.
Growth is related as % relative to untreated cells.

[5] = system: multidrug resistant cells; details: cited from earlier work
[6] = in vitro; details: human, kb 8-5 cells
[7] = in vitro; details: human, kb 8-5-11 cells
[8] = in vitro; details: human, kb 3-1 cells
[9] = In vivo tolerability of RMA; details: dosages achieving equivalent or superior reversal of MDR vs verapamil
[10] = system: Mdr1 protein; details: cited from earlier work

With `CC/C=C\C/C=C\C/C=C\CCCCCCCC(=O)O` [Linolenic Acid] as the molecule, how does the “Relative RMA Activity” value ([1]; 10 μg/ml) read?
Its value is 1.3%.

What about the “Relative RMA Activity” value ([1]; 100 μg/ml) of the same molecule?
Its value is 9.2%.

What about the fold induction at 10 µg/mL ([2]; KB8-5-11, 10 μg/ml) of the same molecule?
The fold induction at 10 µg/mL was 0.9.

What about the fold induction at 100 µg/mL [2] of the same molecule?
The fold induction at 100 µg/mL was 1.7.

And the fold induction at 10 µg/mL ([3]; KB3-1, 10 μg/ml)?
Its fold induction at 10 µg/mL is 1.2.

And the fold induction at 100 µg/mL [3]?
The fold induction at 100 µg/mL was 1.7.

Which results are given for `CCCCCCCC/C=C\CCCCCCCC(=O)O` [Oleic Acid]?
Relative RMA Activity ([1]; 100 μg/ml): 2.7%; fold induction at 100 µg/mL [2]: 1.7; fold induction at 100 µg/mL [3]: 2.1

What does the source list for `COc1ccc(CCN(C)CCCC(C#N)(c2ccc(OC)c(OC)c2)C(C)C)cc1OC` (stereo not shown) [Verapamil]?
CC50 at 72 h [4]: 38 µg/mL (≈ 83.6 µM); effect against VP-16 multidrug resistance (literature) [5]: not effective against VP-16 multidrug resistance; intracellular localization of doxorubicin with added agent (literature) ([5]; drug resistant cells): doxorubicin is localized mainly in the nucleus in drug resistant cells; CC50 at 72 h [6]: 10 µg/mL (≈ 22 µM); CC50 at 72 h [7]: 27 µg/mL (≈ 59.4 µM); CC50 at 72 h [8]: 40 µg/mL (≈ 88 µM); in vivo tolerability [9]: marked toxicity

For `[N-]=[N+]=[N-]` [azide], which “RMA activity / reversal of multidrug resistance (literature)” value ([5]; in vitro) is on record?
Its value is “reverse multidrug resistance in vitro”.

For `CCCCCCCCCCCCCCCCCC(=O)O` [Stearic Acid], which “Relative RMA Activity” value ([1]; 100 μg/ml) is on record?
Its value is 2.1%.

What about the fold induction at 100 µg/mL [2] of the same molecule?
Its fold induction at 100 µg/mL is 1.4.

And the fold induction at 100 µg/mL [3]?
The fold induction at 100 µg/mL was 1.9.

Which results are given for `COc1cc2c(c(OC)c1OC)-c1ccc(OC)c(=O)cc1[C@@H](NC(C)=O)CC2` [Colchicine, colchicine]?
competition for vinblastine binding [10]: does not compete for vinblastine binding; interaction with identified drug-binding site on Mdr1 protein [10]: interact weakly with the identified drug-binding site on the Mdr1 protein
